In patent US8088920B2, “3-trifluoromethyl-pyrazine-2-carboxylic acid amide derivatives as HDL-cholesterol raising agents” (Hoffmann-La Roche Inc., priority 2008, dated 2012):
pEC50: −log10 of the molar value.

system: THP-1 cells; assay: Cholesterol efflux assay; assay type: cell-based; settings: Homo sapiens; THP-1 cells differentiated to macrophages, [3H]cholesterol loaded, efflux induced by 10 μg/ml Apolipoprotein AI, 6 hrs; percent stimulation over DMSO
Description: The ability of compounds of the invention to stimulate cholesterol efflux is determined in replicate cultures of THP-1 cells in 96-well microplates. Cells are plated at an initial density of 150,000 cells/well and differentiated to macrophages with the addition of PMA (100 ng/ml) for 72 hrs in 10% fetal bovine serum, 3 μl/L of b-mercaptoethanol, RPMI-1640 medium. Cells are washed once with RPMI-1640 and loaded with RPMI-1640 medium containing 2% FCS, 50 μg/ml acetylated LDL, and 10 μCi/ml [^3H]cholesterol for 48 hours at 37° C. After loading the cells are washed once with RPMI-1640 and incubated with the compound of interest from DMSO solutions for an additional 24 hrs in RPMI-1640 medium containing 1 mg/ml fatty acid free-bovine serum albumin (BSA). Upon incubation cells are washed once, and cholesterol efflux is induced by the addition of 10 μg/ml Apolipoprotein AI in RPMI-1640 containing 1 mg/ml BSA and in the presence of the compound for an additional 6 hrs. Following incubation radioactivity is determined in the supernatants and cholesterol efflux is expressed as the percent stimulation over replicate cultures treated only with DMSO. Sigmoidal curves were fitted using the XLfit3 program (ID Business Solutions Ltd. UK) and EC50 values were determined.

Row | pEC50 | SMILES
1 | 6.21 | O=C(N[C@@H]1CCCC[C@H]1O)c1nc(-c2ccc(Cl)cc2)c(OCC2CC2)nc1C(F)(F)F [Example 1, 6-(4-chloro-phenyl)-5-cyclopropylmethoxy-3-trifluoromethyl-pyrazine-2-carboxylic acid ((1R,2R)-2-hydroxy-cyclohexyl)-amide]
2 | 6.24 | CC(O)(CNC(=O)c1nc(-c2ccc(Cl)cc2)c(OCC(F)(F)F)nc1C(F)(F)F)C1CC1 (stereo not drawn) [Example 2, 6-(4-chloro-phenyl)-5-(2,2,2-trifluoro-ethoxy)-3-trifluoromethyl-pyrazine-2-carboxylic acid (2-cyclopropyl-2-hydroxy-propyl)-amide]

Row | SMILES | pEC50
3 | CC(O)(CNC(=O)c1nc(-c2ccc(Cl)cc2)c(OCC2CC2)nc1C(F)(F)F)C1CC1 (stereo not drawn) [Example 3, 6-(4-chloro-phenyl)-5-cyclopropylmethoxy-3-trifluoromethyl-pyrazine-2-carboxylic acid (2-cyclopropyl-2-hydroxy-propyl)-amide] | 6.14
